Experimental data: patent publication US10702706B2, “Apparatus, system, and method for generating photo-biologic minimum biofilm inhibitory concentration of infrared light” (NOMIR MEDICAL TECHNOLOGIES, INC., priority 2013, dated 2020)
Where two headings read alike, the source gives them in different places.

Key:
MRSA [1] = details: cited from earlier work
MRSA [2] = details: of 38 patients, topical mupirocin; cited from earlier work
S. aureus = details: cited from earlier work
MRSA [3] = assay: In vitro biofilm formation by biofilm producing MRSA strains challenged with Mupirocin, with or without NIMELS infrared light; assay type: cell-based, methicillin resistant Staphylococcus aureus
Description: The applicant tested the effect in vitro against MRSA with the topical drug Mupirocin.
Accordingly, the PMBIC for MRSA challenged with Mupirocin was established using a straightforward testing protocol.

In the case of `C/C(=C\C(=O)OCCCCCCCCC(=O)O)C[C@@H]1OC[C@H](C[C@@H]2O[C@H]2[C@@H](C)[C@H](C)O)[C@@H](O)[C@H]1O` [Mupirocin], the MIC (MRSA [1]; 17 failed samples that were biofilm producing strains) is listed as at most 2 mg/L, the MIC (MRSA [1]; MRSA samples of the 14 patients with successful eradication) is listed as at most 1 mg/L and the “patients successfully eradicated of their MRSA” value (MRSA [2]) is listed as 14. For the same compound, the “effect on planktonic bacteria” value (S. aureus; applied 15 minutes after inoculation (representing planktonic bacteria)) was “reduced planktonic bacteria”, the “effect on biofilm bacteria” value (S. aureus; applied 48 hours after inoculation (representing biofilm bacteria)) was “decreased efficacy on S. aureus biofilms” and the “prevention of biofilm formation” value (MRSA [3]; drug treatment alone, in vitro, biofilm producing MRSA strain (FIG. 9 left panel)) was “not effective in preventing biofilm formation”. The “inhibition of biofilm production” value (MRSA [3]; sub-lethal NIMELS infrared light doses (870/930 nm, Table I) applied prior to drug, two different samples of MRSA (FIG. 9 right panel, FIG. 10)) was “did in fact inhibit biofilm production”.
